# In patent publication US20240409585A1, “MACROCYCLIC IMMUNOMODULATORS” (priority 2021, published 2024):
# Bridge positions count the residues as written; N and C are the ends. Square brackets hold non-standard residues; d marks the D form. Peptide text beside a SMILES is read from it. * marks the point of attachment. ξ: configuration not given here. Phe(4-COOH) = N[C@@H](Cc1ccc(C(=O)O)cc1)C(=O)O; Bip = N[C@@H](Cc1ccc(-c2ccccc2)cc1)C(=O)O; 4Pal = N[C@@H](Cc1ccncc1)C(=O)O; Cha = N[C@@H](CC1CCCCC1)C(=O)O; Ile(3ξ) = CCC(C)[C@H](N)C(=O)O; Thr(3ξ) = CC(O)[C@H](N)C(=O)O; Ahp(2) = CCCCC[C@H](N)C(=O)O; Dap(Me) = CNC[C@H](N)C(=O)O; Carboxymethyl = O=C(O)C*; NMeA = CN[C@@H](C)C(=O)O; Orn = NCCC[C@H](N)C(=O)O; Dab = NCC[C@H](N)C(=O)O; Dap = NC[C@H](N)C(=O)O
# Molecular target: T1, PE-labeled human PD-L1-Ig binding to Jurkat cell line over-expressing human PD-1 (Jurkat-PD-1) (Homo sapiens, UniProt Q15116)
# T1 construct: expressed in transfected cells; host or cells: Jurkat
# T1 sequence (Q15116 25-288): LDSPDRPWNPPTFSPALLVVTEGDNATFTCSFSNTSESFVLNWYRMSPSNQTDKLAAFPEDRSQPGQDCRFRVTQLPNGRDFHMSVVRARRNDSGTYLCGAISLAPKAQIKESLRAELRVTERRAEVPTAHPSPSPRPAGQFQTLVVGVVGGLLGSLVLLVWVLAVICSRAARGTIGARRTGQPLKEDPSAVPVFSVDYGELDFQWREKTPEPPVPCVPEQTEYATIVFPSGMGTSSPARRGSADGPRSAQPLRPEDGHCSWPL
# Assay: Jurkat-PD-1 Cell Binding High-Content Screening Assay (CBA): Method 1
# Details: Jurkat-hPD-1 cells, PE-labeled PD-L1-Ig 20 nM final; read-out: Jurkat HPDL1 PD1 IC50 (uM) (Method 1)
row,Structure (SMILES),IC50
1,CCC(C)[C@@H]1NC(=O)[C@H](Cc2ccc(-c3ccccc3)cc2)NC(=O)[C@H](C(C)C)NC(=O)[C@H](Cc2c[nH]c3ccccc23)NC(=O)[C@H](CC(=O)O)NC(=O)[C@H](Cc2ccc(O)cc2)NC(=O)[C@H](CC(N)=O)NC(=O)CSC[C@@H](C(=O)N[C@@H](CC(N)=O)C(N)=O)NC(=O)[C@H](C(C)O)NC(=O)[C@H](C(C)C)NC(=O)[C@H](CC(C)C)NC(=O)[C@H](CCN)NC(=O)[C@@H](CC(C)C)NC(=O)[C@H](C)N(C)C1=O (stereo partly drawn) [Compound 2069] ({CH2CO}-NYDWV[Bip][Ile(3ξ)][NMeA][dL][Dab]LV[Thr(3ξ)]CN-NH2; thioether N-14),0.1 µM
2,CCC(C)[C@@H]1NC(=O)[C@H](Cc2ccc(-c3ccccc3)cc2)NC(=O)[C@H](C(C)C)NC(=O)[C@H](Cc2c[nH]c3ccccc23)NC(=O)[C@H](CC(=O)O)NC(=O)[C@H](Cc2ccc(O)cc2)NC(=O)[C@H](CC(N)=O)NC(=O)CSC[C@@H](C(=O)N[C@@H](C)C(N)=O)NC(=O)[C@H](CO)NC(=O)[C@H](C(C)C)NC(=O)[C@H](CC(C)C)NC(=O)[C@H](CCN)NC(=O)[C@@H](CC(C)C)NC(=O)[C@H](C)N(C)C1=O (stereo partly drawn) [Compound 2070] ({CH2CO}-NYDWV[Bip][Ile(3ξ)][NMeA][dL][Dab]LVSCA-NH2; thioether N-14),0.05 µM
3,CC(C)C[C@@H]1NC(=O)[C@H](CCN)NC(=O)[C@@H](CC(C)C)NC(=O)[C@H](C)N(C)C(=O)[C@H](CCCN)NC(=O)[C@H](Cc2ccc(-c3ccccc3)cc2)NC(=O)[C@H](C(C)C)NC(=O)[C@H](Cc2c[nH]c3ccccc23)NC(=O)[C@H](CC(=O)O)NC(=O)[C@H](Cc2ccc(O)cc2)NC(=O)[C@H](CN)NC(=O)CSC[C@@H](C(=O)N[C@@H](C)C(N)=O)NC(=O)[C@H](C(C)O)NC(=O)[C@H](C(C)C)NC1=O (stereo partly drawn) [Compound 2080] ({CH2CO}-[Dap]YDWV[Bip][Orn][NMeA][dL][Dab]LV[Thr(3ξ)]CA-NH2; thioether N-14),0.15 µM
4,CCCCC[C@@H]1NC(=O)[C@H](Cc2ccc(-c3ccccc3)cc2)NC(=O)[C@H](C(C)C)NC(=O)[C@H](Cc2c[nH]c3ccccc23)NC(=O)[C@H](CC(=O)O)NC(=O)[C@H](Cc2ccc(O)cc2)NC(=O)[C@H](CN)NC(=O)CSC[C@@H](C(=O)N[C@@H](C)C(N)=O)NC(=O)[C@H](C(C)O)NC(=O)[C@H](C(C)C)NC(=O)[C@H](CC(C)C)NC(=O)[C@H](CCN)NC(=O)[C@@H](CC(C)C)NC(=O)[C@H](C)N(C)C1=O (stereo partly drawn) [Compound 2082] ({CH2CO}-[Dap]YDWV[Bip][Ahp(2)][NMeA][dL][Dab]LV[Thr(3ξ)]CA-NH2; thioether N-14),0.07 µM
5,CCCCC[C@@H]1NC(=O)[C@H](Cc2ccc(-c3ccccc3)cc2)NC(=O)[C@H](C(C)C)NC(=O)[C@H](Cc2c[nH]c3ccccc23)NC(=O)[C@H](CC(=O)O)NC(=O)[C@H](Cc2ccc(O)cc2)NC(=O)[C@H](CC(N)=O)NC(=O)CSC[C@@H](C(=O)N[C@@H](C)C(N)=O)NC(=O)[C@H](C(C)O)NC(=O)[C@H](C(C)C)NC(=O)[C@H](CC(C)C)NC(=O)[C@H](CCN)NC(=O)[C@@H](CC(C)C)NC(=O)[C@H](C)N(C)C1=O (stereo partly drawn) [Compound 2083] ({CH2CO}-NYDWV[Bip][Ahp(2)][NMeA][dL][Dab]LV[Thr(3ξ)]CA-NH2; thioether N-14),0.06 µM
6,CCC(C)[C@@H]1NC(=O)[C@H](Cc2ccc(-c3ccccc3)cc2)NC(=O)[C@H](C(C)C)NC(=O)[C@H](Cc2c[nH]c3ccccc23)NC(=O)[C@H](CC(=O)O)NC(=O)[C@H](Cc2ccc(OCC(=O)O)cc2)NC(=O)[C@H](CN)NC(=O)CSC[C@@H](C(=O)N[C@@H](C)C(N)=O)NC(=O)[C@H](C(C)O)NC(=O)[C@H](C(C)C)NC(=O)[C@H](CC(C)C)NC(=O)[C@H](CCN)NC(=O)[C@@H](CC(C)C)NC(=O)[C@H](C)N(C)C1=O (stereo partly drawn) [Compound 2084] ({CH2CO}-[Dap]Y(Carboxymethyl)DWV[Bip][Ile(3ξ)][NMeA][dL][Dab]LV[Thr(3ξ)]CA-NH2; thioether N-14),0.07 µM

# These reach a lower IC50. Values come first.
row,IC50,Structure (SMILES)
1,0.03 µM,CCC(C)[C@@H]1NC(=O)[C@H](Cc2ccc(-c3ccccc3)cc2)NC(=O)[C@H](CC(C)C)NC(=O)[C@H](Cc2c[nH]c3ccccc23)NC(=O)[C@H](CC(=O)O)NC(=O)[C@H](Cc2ccc(C(=O)O)cc2)NC(=O)[C@H](Cc2ccc(OCC(=O)O)cc2)NC(=O)CSC[C@@H](C(=O)N[C@@H](C)C(N)=O)NC(=O)[C@H](CO)NC(=O)[C@H](C(C)C)NC(=O)[C@H](CC2CCCCC2)NC(=O)[C@H](CNC)NC(=O)[C@@H](CC(C)C)NC(=O)[C@H](C)N(C)C1=O (stereo partly drawn) [Compound 2068] ({CH2CO}-Y(Carboxymethyl)[Phe(4-COOH)]DWL[Bip][Ile(3ξ)][NMeA][dL][Dap(Me)][Cha]VSCA-NH2; thioether N-14)
2,0.02 µM,CCC(C)[C@@H]1NC(=O)[C@H](Cc2ccc(-c3ccccc3)cc2)NC(=O)[C@H](C(C)C)NC(=O)[C@H](Cc2c[nH]c3ccccc23)NC(=O)[C@H](CC(=O)O)NC(=O)[C@H](Cc2ccc(OCC(=O)O)cc2)NC(=O)[C@H](CNC)NC(=O)CSC[C@@H](C(=O)N[C@@H](CC(N)=O)C(N)=O)NC(=O)[C@H](C(C)O)NC(=O)[C@H](C(C)C)NC(=O)[C@H](CC2CCCCC2)NC(=O)[C@H](CN)NC(=O)[C@@H](CC(C)C)NC(=O)[C@H](C)N(C)C1=O (stereo partly drawn) [Compound 2078] ({CH2CO}-[Dap(Me)]Y(Carboxymethyl)DWV[Bip][Ile(3ξ)][NMeA][dL][Dap][Cha]V[Thr(3ξ)]CN-NH2; thioether N-14)
3,0.02 µM,CCC(C)[C@@H]1NC(=O)[C@H](Cc2ccc(-c3ccccc3)cc2)NC(=O)[C@H](C(C)C)NC(=O)[C@H](Cc2c[nH]c3ccccc23)NC(=O)[C@H](CC(=O)O)NC(=O)[C@H](Cc2ccc(O)cc2)NC(=O)[C@H](CC(N)=O)NC(=O)CSC[C@@H](C(=O)N[C@@H](CCCCN)C(N)=O)NC(=O)[C@H](C(C)O)NC(=O)[C@H](C(C)C)NC(=O)[C@H](CC2CCCCC2)NC(=O)[C@H](CCN)NC(=O)[C@@H](CC(C)C)NC(=O)[C@H](C)N(C)C1=O (stereo partly drawn) [Compound 2079] ({CH2CO}-NYDWV[Bip][Ile(3ξ)][NMeA][dL][Dab][Cha]V[Thr(3ξ)]CK-NH2; thioether N-14)
4,0.03 µM,CC(C)C[C@@H]1NC(=O)[C@H](CCN)NC(=O)[C@@H](CC(C)C)NC(=O)[C@H](C)N(C)C(=O)[C@H](CCCN)NC(=O)[C@H](Cc2ccc(-c3ccccc3)cc2)NC(=O)[C@H](C(C)C)NC(=O)[C@H](Cc2c[nH]c3ccccc23)NC(=O)[C@H](CC(=O)O)NC(=O)[C@H](Cc2ccc(O)cc2)NC(=O)[C@H](Cc2ccncc2)NC(=O)CSC[C@@H](C(=O)N[C@@H](C)C(N)=O)NC(=O)[C@H](C(C)O)NC(=O)[C@H](C(C)C)NC1=O (stereo partly drawn) [Compound 2081] ({CH2CO}-[4Pal]YDWV[Bip][Orn][NMeA][dL][Dab]LV[Thr(3ξ)]CA-NH2; thioether N-14)
5,0.01 µM,CC(C)C[C@H]1NC(=O)[C@H](C)N(C)C(=O)[C@H](CCC(=O)O)NC(=O)[C@H](Cc2ccc(-c3ccccc3)cc2)NC(=O)[C@H](C(C)C)NC(=O)[C@H](Cc2c[nH]c3ccccc23)NC(=O)[C@H](CC(=O)O)NC(=O)[C@H](Cc2ccc(OCC(=O)O)cc2)NC(=O)[C@H](CC(N)=O)NC(=O)CSC[C@@H](C(=O)NCC(N)=O)NC(=O)[C@H](C(C)O)NC(=O)[C@H](C(C)C)NC(=O)[C@H](CC2CCCCC2)NC(=O)[C@H](CCN)NC1=O (stereo partly drawn) [Compound 2085] ({CH2CO}-NY(Carboxymethyl)DWV[Bip]E[NMeA][dL][Dab][Cha]V[Thr(3ξ)]CG-NH2; thioether N-14)
